Like-named read-outs stand apart in the source and are kept apart here.
Legend:
mice = conditions: cited from earlier work
[1] = Drug solutions in cell culture medium; type: physicochemical; conditions: from DMSO stock
Experimental: Stock solutions of the drugs tested were prepared in DMSO 100% (v/v). […] LC-MS measurements confirmed the stability of the compounds (data not shown). Treatments with AS, MT04, or OZ78 (100 or 500 µM) were performed either alone or in combination with 8% (v/v) hemin or FeCl2 solution for 24 h. The final iron concentration used was 122 µM (stock 1.5 mM) based on previous in vitro studies with F. hepatica.

F. hepatica [2] = system: F. hepatica; design: method as in PMID 21316331; conditions: 50 µg/mL; cited from earlier work
F. hepatica [3] = conditions: sheep naturally infected with F. hepatica; cited from earlier work
[4] = design: method as in PMID 15318224; conditions: cited from earlier work

In the case of `C[C@H]1[C@H](OC(=O)CCC(=O)O)O[C@@H]2O[C@@]3(C)CC[C@H]4[C@H](C)CC[C@@H]1[C@@]24OO3` [AS, artesunate, reference compound], the LD50 (mice; single intramuscular administration) is listed as 475 mg/kg and the LD50 (mice; single intravenous administration) is listed as 520 mg/kg.

For `O=C(O)CC1CCC2(CC1)OOC1(OO2)C2CC3CC(C2)CC1C3` (stereo not shown) [MT04], the “behaviour of drug solutions in medium” value [1] is given as “tend to precipitate”, the “activity against the liver fluke F. hepatica” value (F. hepatica [2]) is given as “have activity” and the egg count reduction (F. hepatica [3]) is given as 98.5%. For the same compound, the worm burden reduction (F. hepatica [3]) was 92%.

For `O=C(O)C[C@H]1CC[C@]2(CC1)OOC1(O2)C2CC3CC(C2)CC1C3` (stereo partly shown) [OZ78], the “behaviour of drug solutions in medium” value [1] is given as “tend to precipitate”, the mutagenic potential [4] is given as “no mutagenic potential” and the “activity against the liver fluke F. hepatica” value (F. hepatica [2]) is given as “have activity”. The effect in sheep (F. hepatica [3]) was “no effect”.

Source: PMC6801819, “Exogenous Iron Increases Fasciocidal Activity and Hepatocellular Toxicity of the Synthetic Endoperoxides OZ78 and MT04” (International Journal of Molecular Sciences, 2019)
